A word on the AUC(0-t): it is the area under the concentration-time curve up to a stated or last time point. A low value points to less exposure. The Cmax is the highest concentration seen after dosing. As a reminder, the Tmax is the time from dosing to the highest level. Usually half-life stands for the time in which the quantity being followed falls by half. The EC50 is the concentration needed to bring the measured effect to its halfway point. A word on the IC50: it is the concentration that inhibits the measured activity by half.

Where two headings read alike, the source gives them in different places.

The nature of data set [1]: Routine pharmacokinetic (PK) test in rats, oral gavage. Format: in vivo. As to conditions: rat, 5 mg/kg, plasma. The procedure:
Solvent formula: 10% DMSO, 5% ethanol, 5% Cremophor EL and 80% deionized water. […] Measure 1.316 mL of DMSO, vortex for 1 minute, and sonicate for 10 minutes to obtain a 5 mg/mL clear DMSO stock solution.
Take 1 mL of 5 mg/mL DMSO stock solution, add 0.5 mL of ethanol, vortex for 1 minute, add 0.5 mL of Cremophor EL, vortex for 1 minute, and finally add 8 mL of deionized water, vortex for 1 minute to obtain a clear administration formulation with a concentration of 0.5 mg/mL. Prepare it immediately before use and store it at room temperature after preparation.
Oral gavage administration, with the route of administration consistent with the intended clinical route of administration.
Oral sampling: There were a total of 8 collection time points, at 0.25, 0.5, 1, 2, 4, 6, 8 and 24 hours after administration.
Plasma: After euthanasia of the animals, blood was drawn by puncture. The samples were placed in tubes containing K2-EDTA and stored on ice until centrifugation. Within 1 hour after blood collection, the samples were centrifuged at 6800 g for 6 minutes at 2-8°C to obtain plasma samples, which were then frozen and stored at approximately -80°C.
Analyze the compound. While analyzing the sample, utilize quality control samples to evaluate the intra-day accuracy of the analytical batch.
When calculating pharmacokinetic parameters, the BLQ concentration data before the time to reach peak concentration (Tmax) in the oral administration group are calculated as "0", and BLQ concentration data after Tmax are excluded from all calculations.
The non-compartmental model statistical moment method using Phoenix WinNonlin® 7.0 software was employed to calculate the following main pharmacokinetic parameters: Tmax, Cmax, AUC(0-t), T1/2, etc.
1) Take 30 µL of mixed standard curve samples, quality control samples, blank samples, zero concentration samples, and test samples. 2) For standard curve samples, quality control samples, zero concentration samples and test samples, add 300 µL of internal standard working solution (containing 100 ng/mL IS). For blank samples, ULOQ without IS samples (if necessary), add the same volume of acetonitrile. 3) Vortex mix for 1 minute 4) Centrifuge at 4°C for 7 minutes (18,000g) 5) Take 200 µL of the supernatant to the corresponding wells of a 96-well injection plate. 6) Inject 4µL of sample for LC-MS/MS analysis. Table 4 Pharmacokinetic data of compounds after oral administration in vivo

For data set [2] the following is noted: clearance proportion.
For data set [3] the following is noted: clearance proportion. This is another data set of the same source.
A further data set has as its system SARS-Cov-2 XBB.1. As to the kind of experiment: microbe, parasite or virus in culture. As to conditions: Severe acute respiratory syndrome coronavirus 2, Vero C1008, 48 h, read-out: SARS-Cov-2 XBB.1 EC50 (µM). Format: cell-based.
In a further data set the test system is SARS-CoV-2 WT. As to the kind of experiment: Anti-viral activity evaluation in SARS-CoV-2 infected Vero-E6 cell model (qRT-PCR viral copy numbers). Format: cell-based. As to conditions: Severe acute respiratory syndrome coronavirus 2, Vero C1008, 48 h, read-out: SARS-Cov-2 WT EC50 (µM). Background: Quantitative PCR measures a nucleic acid by following its amplification.

The subject of the next data set is SARS-Cov-2 Omicron BA.5. As to the kind of experiment: microbe, parasite or virus in culture. Format: cell-based. As to conditions: Severe acute respiratory syndrome coronavirus 2, Vero C1008, 48 h, read-out: SARS-Cov-2 Omicron BA.5 EC50 (µM).
The next data set addresses T1, SARS-CoV-2 PL^Pro (Severe acute respiratory syndrome coronavirus 2, UniProt P0DTD1).
T1 construct: SARS-CoV-2 PL^Pro catalytic domain (746-1060); made in house
As to the kind of experiment: biochemical.

The mark [4] stands for this setting: SARS-CoV-2 PLPro catalytic domain (746-1060), 10 minutes pre-incubation, read-out: PLpro IC50.

With `Cc1ccc(N2CCN(C)CC2)cc1C(=O)NC1(c2ccc3c4c(cccc24)C(=O)N3C)CC1` [Compound P1, 2-Methyl-N-(1-(1-methyl-2-oxo-1,2-dihydrobenzo[cd]indol-6-yl)cyclopropyl)-5-(4-methylpiperazin-1-yl)benzamide], in data set [1], the AUC(0-t) stood at 3390 ng·h/mL, the peak concentration (Cmax) came out at 393 ng/mL, the Tmax is 3 h and the half-life was 3 h. The “Rat Eh (%)” value in data set [2] worked out at 37.3%. In data set [3], the “Human Eh (%)” value is 77%. In addition, the 50% effective concentration (EC50) with SARS-Cov-2 XBB.1 lay in the range of 0.1 to 1 µM. For the same compound, in the data set on SARS-CoV-2 WT, the EC50 is 0.1 to 1 µM. For the same compound, in the data set on SARS-Cov-2 Omicron BA.5, the EC50 was in the range of 0.1 to 1 µM.

`Cc1ccc(N2CC3CC(C2)N3)cc1C(=O)NC1(c2ccc3c4c(cccc24)C(=O)N3C)CC1` [Compound P5, 5-(3,6-diazabicyclo[3.1.1]heptan-3-yl)-2-methyl-N-(1-(1-methyl-2-oxo-1,2-dihydrobenzo[cd]indol-6-yl)cyclopropyl)be nzamide] gave an IC50 at SARS-CoV-2 PL^Pro of less than 0.04 µM. Also, the concentration for a half-maximal effect (EC50) with SARS-Cov-2 XBB.1 is 0.04 to 0.1 µM; in the data set with SARS-CoV-2 WT it was less than 0.04 µM; in the data set with SARS-Cov-2 Omicron BA.5, 0.1 to 1 µM.

Regarding `Cc1ccc(C2=CCN(C)CC2)cc1C(=O)NC1(c2ccc3c4c(cccc24)C(=O)N3C)CC1` [Compound P7, 2-Methyl-5-(1-methyl-1,2,3,6-tetrahydropiperidin-4-yl)-N-(1-(1-methyl-2-oxo-1,2-dihydrobenzo[cd]indol-6-yl)cyclopropyl)benzamide], the concentration for half-maximal inhibition (IC50) against SARS-CoV-2 PL^Pro was less than 0.04 µM. For the same compound, the EC50 with SARS-Cov-2 XBB.1, with SARS-CoV-2 WT and with SARS-Cov-2 Omicron BA.5 was 0.1 to 1 µM in each case.

Compound `Cc1ccc(N2CC3CC(C2)N3C)cc1C(=O)NC1(c2ccc3c4c(cccc24)C(=O)N3C)CC1` [Compound P11, 2-methyl-N-(1-(1-methyl-2-oxo-1,2-dihydrobenzo[cd]indol-6-yl)cyclopropyl)-5-(6-methyl-3,6-diazabicyclo[3.1.1]heptan-3-yl)benzamide] yielded a half-maximal inhibitory concentration (IC50) against SARS-CoV-2 PL^Pro of less than 0.04 µM. For the same compound, the EC50 with SARS-Cov-2 XBB.1 is 0.04 to 0.1 µM; in the data set with SARS-CoV-2 WT it was 0.1 to 1 µM; in the data set on SARS-Cov-2 Omicron BA.5, 0.1 to 1 µM.

For `CC(C)N1C(=O)c2cccc3c(C4(NC(=O)c5cccc(N6CC7CC(C6)N7)c5)CC4)ccc1c23` [Compound P16, 5-(3,6-diazabicyclo[3.1.1]heptan-3-yl)-N-(1-(1-isopropyl-2-oxo-1,2-dihydrobenzo[cd]indol-6-yl)cyclopropyl)benzamide], the IC50 at SARS-CoV-2 PL^Pro (read-out: PLpro IC50) was less than 0.04 µM. Also, the EC50 with SARS-Cov-2 XBB.1 lay in the range of 0.04 to 0.1 µM; in the data set on SARS-CoV-2 WT, 0.1 to 1 µM; with SARS-Cov-2 Omicron BA.5 it was 0.1 to 1 µM.

Turning to `Cc1ccc(N2CC(N3CCC(C)(O)CC3)C2)cc1C(=O)NC1(c2ccc3c4c(cccc24)C(=O)N3C)CC1` [Compound P17, 5-(3-(4-Hydroxy-4-methylpiperidin-1-yl)azetidin-1-yl)-2-methyl-N-(1-(1-methyl-2-oxo-1,2-dihydrobenzo[cd]indol-6-yl)cyclopropyl)benzamide], the concentration for half-maximal inhibition (IC50) on SARS-CoV-2 PL^Pro (setting [4]) is less than 0.04 µM. Moreover, the EC50 with SARS-Cov-2 XBB.1 was 0.04 to 0.1 µM; in the data set with SARS-CoV-2 WT it was less than 0.04 µM; with SARS-Cov-2 Omicron BA.5 it was 0.1 to 1 µM.

For the compound `Cc1ccc(N2CCN(CCCS(C)(=O)=O)CC2)cc1C(=O)NC1(c2ccc3c4c(cccc24)C(=O)N3C)CC1` [Compound P51], at SARS-CoV-2 PL^Pro (read-out: PLpro IC50), the half-maximal inhibitory concentration (IC50) is 0.04 to 0.1 µM.

In the case of `Cc1ccc(N2CCN(CCN(C)C)CC2)cc1C(=O)NC1(c2ccc3c4c(cccc24)C(=O)N3C)CC1` [Compound P52, 5-(4-(2-(Dimethylamino)ethyl)piperazin-1-yl)-2-methyl-N-(1-(1-methyl-2-oxo-1,2-dihydrobenzo[cd]indol-6-yl)cyclopropyl)benzamide], the half-inhibitory concentration (IC50) at SARS-CoV-2 PL^Pro (setting [4]) was in the range of 0.1 to 1 µM.

On to `Cc1ccc(N2CCN(CCO)CC2)cc1C(=O)NC1(c2ccc3c4c(cccc24)C(=O)N3C)CC1` [Compound P53, 5-(4-(2-Hydroxyethyl)piperazin-1-yl)-2-methyl-N-(1-(1-methyl-2-oxo-1,2-dihydrobenzo[cd]indol-6-yl)cyclopropyl)ben zamide], for which the IC50 at SARS-CoV-2 PL^Pro (setting [4]) is 0.04 to 0.1 µM.

Turning to `Cc1ccc(N2CC(N3CC(F)C3)C2)cc1C(=O)NC1(c2ccc3c4c(cccc24)C(=O)N3C)CC1` [Compound P54, 5-(3-Fluoro-[1,3'-diazetidinyl]-1'-yl)-2-methyl-N-(1-(1-methyl-2-oxo-1,2-dihydrobenzo[cd]indol-6-yl)cyclopropyl)ben zamide], the IC50 at SARS-CoV-2 PL^Pro (read-out: PLpro IC50) was 0.04 to 0.1 µM.
